“Also recorded” adds a separate entry of the source.
Tests used:
PC3 cells = test: Killing of PC3 cells by 5-LOX inhibitor; format: cell-based, human; settings: 10 micromolar
5-LOX = test: Production of 5-oxoETE in PC3 cells measured by LC/MS; format: cell-based, human; settings: 10 micromolar, two hours at 37 degree C, control cells 11 picograms per ml
Protocol: We also measured the production of 5-oxoETE in PC3 prostate cancer cells by liquid chromatography/mass spectrometry “(LC/MS”) to assess whether prostate cancer cells constitutively produce 5-oxoETE as a survival factor. […] PC3 prostate cancer cells (2 million per plate) were plated in 6 ml RPMI medium in serum-free medium for 24 hours. On the next day cells were treated with 10 micromolar MK591 (a specific 5-LOX inhibitor) for two hours at 37 degree C., or cells were left untreated. The media were collected, eicosanoids extracted, and measured by LC/MS.

prostate cancer cells = settings: exogenous metabolite, previous work [7, 8, 17]; cited from earlier work

Structure (SMILES)	killing of PC3 cells (PC3 cells)	eicosanoids (5-oxoETE) in serum-free culture medium (5-LOX) [picograms per ml]	prevention of apoptosis triggered by 5-LOX inhibition (prostate cancer cells)
CC(C)(C)Sc1c(CC(C)(C)C(=O)O)n(Cc2ccc(Cl)cc2)c2ccc(OCc3ccc4ccccc4n3)cc12 [MK591]	kills PC3 cells	0	
CCCCC/C=C\C/C=C\C/C=C\C=C\C(=O)CCCC(=O)O [5-oxoETE, 5-oxoeicosatetraenoic acid]			prevented; also recorded: more effective
CCCCC/C=C\C/C=C\C/C=C\C=C\[C@@H](O)CCCC(=O)O [5-HETE, 5(S)-hydroxyeicosatetraenoic acid]			prevented

— patent US20100130585A1, “METHODS AND COMPOSITIONS FOR INVESTIGATION AND TREATMENT OF CANCER USING A G-PROTEIN COUPLED EICOSANOID RECEPTOR” (priority 2005, published 2010)
